Test results taken from patent US20100190182A1, “DIAGNOSTIC COMPOSITION AND METHOD FOR THE DETECTION OF A TRICHINELLA INFECTION” (priority 2007, published 2010).
Where no end group is shown, it is not given here. The star is where a group is joined. 5FAM = O=C1OC2(c3ccc(O)cc3Oc3cc(O)ccc32)c2ccc(C(=O)*)cc21

Columns and labels:
[1] = test system: Trichinella positive serum (antibodies against Trichinella); assay: FPA discrimination between Trichinella positive and Trichinella negative serum; type: binding; conditions: mP positive serum minus mP negative serum; tracer 5 nM; buffer differs per tracer as listed in Table 2
Protocol: Table 2 depicts for some of the Trichinella peptides their ability to discriminate between a Trichinella positive and a Trichinella negative serum sample using fluorescence polarisation assay (FPA).
FPA analysis of the tracers shown in Table 2 was performed by the following procedure. A […] aliquot of the positive or negative serum was diluted with […] of buffer (PBS with detergent as indicated in Table 2) in a single well of a black coloured 96-well plate. The plate was incubated for 2 minutes at room temperature on an orbital shaker set at 1350 rpm and then incubated for another minute without shaking. Blank measurement of the sample was then performed by reading the fluorescence polarisation in a fluorescence reader (Safire2, Tecan, Switzerland) with excitation and emission wavelength set at 470 nm and 520 nm, respectively. Then, […] tracer was added to the reaction mixture to a final concentration of 5 nM and the plate was incubated at room temperature with shaking (1350 rpm) for 15 minutes and then for an additional minute without shaking. Then the plate was measured.
(§1) The mP values were calculated according to the following formula: […]
(§2) The ΔmP values were obtained by subtracting the mP values of the negative serum from the positive sera:
ΔmP=mPpositive serum=mPnegative serum

[2] = molecular target: 5-CF-Trp-Gly(9)-FLAG; assay: fluorescence polarisation assay; tracer 8.1 nM, 3 molar equivalents of antibody
[3] = molecular target: 5-CF-Pro-Gly(9)-FLAG; assay: as above
[4] = molecular target: 5-CF-Trp(2)-Gly(9)-FLAG; assay: as above
[5] = molecular target: 5-CF-Trp-Gly(9)-FLAG; assay: fluorescence polarisation assay; tracer 8.1 nM, 1 molar equivalent of antibody
[6] = molecular target: 5-CF-Pro-Gly(9)-FLAG; assay: as above
[7] = molecular target: 5-CF-Trp(2)-Gly(9)-FLAG; assay: as above
[8] = molecular target: 5-CF-Trp-Gly(9)-FLAG; assay: fluorescence polarisation assay; tracer 2.7 nM, 10 molar equivalents of antibody
[9] = molecular target: 5-CF-Pro-Gly(9)-FLAG; assay: as above
[10] = molecular target: 5-CF-Trp(2)-Gly(9)-FLAG; assay: as above
[11] = molecular target: 5-CF-Trp-Gly(9)-FLAG; assay: fluorescence polarisation assay; tracer 2.7 nM, 3 molar equivalents of antibody
[12] = molecular target: 5-CF-Pro-Gly(9)-FLAG; assay: as above
[13] = molecular target: 5-CF-Trp(2)-Gly(9)-FLAG; assay: as above
[14] = molecular target: 5-CF-Trp-Gly(9)-FLAG; assay: fluorescence polarisation assay; tracer 2.7 nM, 1 molar equivalent of antibody
[15] = molecular target: 5-CF-Pro-Gly(9)-FLAG; assay: as above
[16] = molecular target: 5-CF-Trp(2)-Gly(9)-FLAG; assay: as above
[17] = molecular target: 5-CF-Trp-Gly(9)-FLAG; assay: fluorescence polarisation assay; tracer 8.1 nM, 10 molar equivalents of antibody
[18] = molecular target: 5-CF-Pro-Gly(9)-FLAG; assay: as above
[19] = molecular target: 5-CF-Trp(2)-Gly(9)-FLAG; assay: as above
[20] = test system: anti-FLAG M2 monoclonal antibody; assay: FPA analysis of FLAG model peptide tracers with anti-FLAG antibody; type: binding; conditions: TBS pH 7.2
Excerpt: The FLAG peptide (a well known tag, e.g. used for immuno affinity purification) was used as a model peptide to develop a labelling strategy for peptide tracers which allows chemical linking of a fluorophore to the peptide to reduce or inhibit rotation of the fluorophore relative to the peptide. The FLAG peptide and an elongated FLAG peptide were used to and coupled to 5-Carboxyfluorescein (5-CF) with a linker containing the following amino acid composition
FPA analysis of the FLAG Model peptide shown in Table 1 was performed by the following procedure.
The FLAG Model peptide tracers were diluted in TBS (containing 25 mM Tris, 0.15M NaCl, NP40 0.05%, pH 7.2) at a concentration of 8.1 nM or 2.7 nM, respectively in a single well of a black colored 96-well plate. The plate was incubated for 2 minutes at room temperature on an orbital shaker set at 1350 rpm and then incubated for another minute without shaking. Blank measurement of the sample was then performed by reading the fluorescence polarisation in a fluorescence reader (Safir2, Tecan, Switzerland) with excitation and emission wavelength set at 470 nm and 520 nm, respectively.
Then, 1, 3 or 10 molar equivalence of the anti-FLAG M2 monoclonal antibody (Sigma, Switzerland), respectively, were added and the plate was incubated at room temperature with shaking (1350 rpm) for 3 minutes and then for an additional minute without shaking. Then the plate was measured.
as §1, §2
ΔmP=mPpositive serum−mPnegative serum

[21] = test system: Trichinella positive sera (antibodies against Trichinella); assay: ELISA discrimination between Trichinella positive and negative serum using SS2 peptides; type: binding, pig; conditions: peptide-coated plate; serial two fold dilutions of serum; read at 405 nm; FIGS. 8a and b
Protocol: FIGS. 8a and b show the results of 2 of the preferred SS2 peptides (SEQ IDs NO 7 and 8) tested in ELISA assays. […] Serial two fold dilutions of the serum sample were tested.
Single wells of a 96-well microtitre plate were coated with the SS2 peptides ([…]) at a concentration of […] in carbonate buffer 0.1 M (pH 9.5) overnight at 4° C. The plate was washed 4 times with 0.05% Tween 80 and then blocked with a PBS buffer containing 2% I-block and 0.1% Tween 20 for 90 minutes at 25° C.±3° C. Pig sera were diluted 50-fold in phosphate buffered saline and serial 2-fold dilutions were incubated in the microtitre plate with shaking (500 rpm) for 2 hours at room temperature. The plates were washed 4 times with 0.05% Tween 80 Detection of the bound antibodies was performed by incubation with a goat anti-pig IgG(Fc)-POD conjugate (Bethyl Laboratories, USA) at a concentration of 1.3 ug/ml for 1 h at RT with shaking (500 rpm). Following four more washes, 2′-azino-bis(3-ethylbenzthiazoline-6-sulphonic acid) (ABTS) substrate solution was added and incubated for 30 minutes, colour development was measured in a ELISA reader (Tecan, Switzerland) at a wavelength of 405 nm.

[22] = tracer 2.7 nM, 1 molar equivalent anti-FLAG antibody
[23] = tracer 2.7 nM, 3 molar equivalents anti-FLAG antibody
[24] = tracer 2.7 nM, 10 molar equivalents anti-FLAG antibody
[25] = tracer 8.1 nM, 1 molar equivalent anti-FLAG antibody
[26] = tracer 8.1 nM, 3 molar equivalents anti-FLAG antibody
[27] = tracer 8.1 nM, 10 molar equivalents anti-FLAG antibody

KEADKSALRLKRFAKPPKGFF (KEADKSALRLKRFAKPPKGFF; listed as Trichinella spiralis) [SEQ ID NO 27, peptide of Trichinella spiralis 53 kDa excretory/secretory antigen]
ΔmP [1]: 31 mP

KPFGDEIDRI LRKAF (KPFGDEIDRILRKAF; listed as Trichinella spiralis) [SEQ ID NO 26, peptide of Trichinella spiralis 53 kDa excretory/secretory antigen]
ΔmP [1]: 31 mP

QNERQFDENK LKKLLKPLG (QNERQFDENKLKKLLKPLG; listed as Trichinella spiralis) [SEQ ID NO 20, peptide of Trichinella spiralis 53 kDa excretory/secretory antigen]
ΔmP [1]: 28 mP

ALRLKRFAK (listed as Trichinella spiralis) [SEQ ID NO 28, peptide of Trichinella spiralis 53 kDa excretory/secretory antigen]
ΔmP [1]: 41 mP

anti-FLAG M2 monoclonal antibody (Sigma, Switzerland)
ΔmP [2]: 50 mP
ΔmP [3]: 33 mP
ΔmP [4]: 78 mP
ΔmP [5]: 19 mP
ΔmP [6]: 14 mP
ΔmP [7]: 37 mP
ΔmP [8]: 55 mP
ΔmP [9]: 33 mP
ΔmP [10]: 97 mP
ΔmP [11]: 27 mP
ΔmP [12]: 15 mP
ΔmP [13]: 35 mP
ΔmP [14]: 9 mP
ΔmP [15]: 5 mP
ΔmP [16]: 5 mP
ΔmP [17]: 86 mP
ΔmP [18]: 62 mP
ΔmP [19]: 124 mP

QNERQFDENKLKKLLKPLGKLYKTPSD (QNERQFDENKLKKLLKPLGKLYKTPSD; listed as Trichinella spiralis) [SEQ ID NO 19, peptide of Trichinella spiralis 53 kDa excretory/secretory antigen]
ΔmP [1]: 33 mP

5-CF-Pro-Gly(9)-Asp-Tyr-Lys-Asp-Asp-Asp-Asp-Lys [S-CF-Pro-Gly(9)-FLAG]
ΔmP values [20, 22]: 5 mP
ΔmP values [20, 23]: 15 mP
ΔmP values [20, 24]: 33 mP
ΔmP values [20, 25]: 14 mP
ΔmP values [20, 26]: 33 mP
ΔmP values [20, 27]: 62 mP

LSTASRPTNPYTGSRPTSPSSGSRP (LSTASRPTNPYTGSRPTSPSSGSRP; listed as Trichinella spiralis) [SEQ ID NO 7, peptide of Trichinella spiralis newborn larvae-specific protein SS2]
ΔmP [1]: 20 mP
ability to discriminate between negative and positive sera in ELISA [21]: able to discriminate between negative and positive sera

PTYPSSGSRP TYPSSGSRP (PTYPSSGSRPTYPSSGSRP; listed as Trichinella spiralis) [SEQ ID NO 9, peptide of Trichinella spiralis newborn larvae-specific protein SS2]
ΔmP [1]: 66 mP

PTYPSSGSRPTYPSSGSRPTYPYTG (PTYPSSGSRPTYPSSGSRPTYPYTG; listed as Trichinella spiralis) [SEQ ID NO 8, peptide of Trichinella spiralis newborn larvae-specific protein SS2]
ΔmP [1]: 66 mP
ability to discriminate between negative and positive sera in ELISA [21]: able to discriminate between negative and positive sera

VVTIFRKNGK TTEVLSL (VVTIFRKNGKTTEVLSL; listed as Trichinella spiralis) [SEQ ID NO 24, peptide of Trichinella spiralis 53 kDa excretory/secretory antigen]
ΔmP [1]: 57 mP

NNYRGRQGIA GLGML (NNYRGRQGIAGLGML; listed as Trichinella spiralis) [SEQ ID NO 23, peptide of Trichinella spiralis 53 kDa excretory/secretory antigen]
ΔmP [1]: 23 mP

VVYSKTSSSR LEMYGSF (VVYSKTSSSRLEMYGSF; listed as Trichinella spiralis) [SEQ ID NO 16, peptide of Trichinella spiralis 43 kDa secreted glycoprotein]
ΔmP [1]: 20 mP

5-CF-Trp-Gly(9)-Asp-Tyr-Lys-Asp-Asp-Asp-Asp-Lys (5FAM-WGGGGGGGGGDYKDDDDK) [5-CF-Trp-Gly(9)-FLAG, FLAG model peptide tracer coupled to 5-Carboxyfluorescein via Trp linker]
ΔmP values [20, 22]: 9 mP
ΔmP values [20, 23]: 27 mP
ΔmP values [20, 24]: 55 mP
ΔmP values [20, 25]: 19 mP
ΔmP values [20, 26]: 50 mP
ΔmP values [20, 27]: 86 mP

MHKITHKSIVSRHTFAVYLLVSGQK (MHKITHKSIVSRHTFAVYLLVSGQK; listed as Trichinella spiralis) [SEQ ID NO 5, peptide of Trichinella spiralis newborn larvae-specific protein SS2; used as FPA tracer]
ΔmP [1]: 39 mP

5-CF-Trp(2)-Gly(9)-Asp-Tyr-Lys-Asp-Asp-Asp-Asp-Lys (5FAM-WWGGGGGGGGGDYKDDDDK) [5-CF-Trp(2)-Gly(9)-FLAG, FLAG model peptide tracer coupled to 5-Carboxyfluorescein via Trp-Trp linker]
ΔmP values [20, 22]: 5 mP
ΔmP values [20, 23]: 35 mP
ΔmP values [20, 24]: 97 mP
ΔmP values [20, 25]: 37 mP
ΔmP values [20, 26]: 78 mP
ΔmP values [20, 27]: 124 mP

VGGTDVRPHSH PWQIQLLKSET G (VGGTDVRPHSHPWQIQLLKSETG; listed as Trichinella spiralis) [SEQ ID NO 6, peptide of Trichinella spiralis newborn larvae-specific protein SS2; used as FPA tracer]
ΔmP [1]: 35 mP
